The test system of the test is E. coli. The test is described as follows: Bacterial susceptibility testing, MIC by broth microdilution (CLSI). The following applies: for MIC: Escherichia coli, read-out: E. coli MIC, broth microdilution, 35° C., 18-24 h; for E. coli MIC: broth microdilution, 35° C., 18-24 h.

Structures are written as SMILES. Values after ≈ are worked out from the molar mass of the structure shown.

Method: Minimal inhibitory concentrations (MIC) were determined by the broth microdilution method in accordance with the Clinical and Laboratory Standards Institute (CLSI) guidelines. In brief, organism suspensions were adjusted to a 0.5 McFarland standard to yield a final inoculum between 3×10^3 and 7×10^5 colony-forming units (CFU)/mL. Drug dilutions and inocula were made in sterile, cation adjusted Mueller-Hinton Broth (Beckton Dickinson). An inoculum volume of 100 μL was added to wells containing 100 μL of broth with 2-fold serial dilutions of drug.

On to `O=c1[nH]cnc(C[C@H](CNCCCF)c2ccc(C#Cc3ccc(CN4CCOCC4)cc3)cc2F)c1O` (single isomer, unassigned) [Compound 237], for which the MIC is below 1 µg/mL. On the same count and under the same terms, for `COC1CN(Cc2ccc(C#Cc3ccc(C(CN[C@@H](C)CF)Cc4nc[nH]c(=O)c4O)c(F)c3)cc2)C1` (single isomer, unassigned) [Compound 238] the value was below 1 µg/mL. As to `C[C@@H](CF)NCC(Cc1nc[nH]c(=O)c1O)c1ccc(C#Cc2ccc(CN3CC4COCC4C3)cc2)cc1F` (single isomer, unassigned) [Compound 239], the MIC was below 1 µg/mL. On to `O=c1[nH]cnc(C[C@H](CO)c2ccc(C#Cc3ccc(CN(CCO)[C@H]4CCOC4)cc3)cc2)c1O` (single isomer, unassigned) [Compound 243], for which the MIC is below 1 µg/mL. Regarding `C[C@H](O)CNC[C@@H](Cc1nc[nH]c(=O)c1O)c1ccc(C#Cc2ccc(CN3CCOCC3)cc2)cc1` (single isomer, unassigned) [Compound 245], the MIC is below 1 µg/mL. For the compound `C[C@H](O)CNC[C@H](Cc1nc[nH]c(=O)c1O)c1ccc(C#Cc2ccc(CN3CCOCC3)cc2)cc1` (single isomer, unassigned) [Compound 246], the MIC was 1 to 8 µg/mL (≈ 1.99 to 15.9 µM). Turning to `C[C@@H](O)CNC[C@H](Cc1nc[nH]c(=O)c1O)c1ccc(C#Cc2ccc(CN3CCOCC3)cc2)cc1` (single isomer, unassigned) [Compound 247], the MIC was 1 to 8 µg/mL (≈ 1.99 to 15.9 µM). For the compound `C[C@@H](O)CNC[C@@H](Cc1nc[nH]c(=O)c1O)c1ccc(C#Cc2ccc(CN3CCOCC3)cc2)cc1` (single isomer, unassigned) [Compound 248], the MIC was below 1 µg/mL. Still for that read-out and setting: for `COC1CN(Cc2ccc(C#Cc3ccc([C@H](CNC4(C)CC4)Cc4nc[nH]c(=O)c4O)cc3)cc2)C1` (single isomer, unassigned) [Compound 250] the value was below 1 µg/mL. Turning to `COC1CN(Cc2ccc(C#Cc3ccc([C@@H](CNC4(C)CC4)Cc4nc[nH]c(=O)c4O)cc3)cc2)C1` (single isomer, unassigned) [Compound 251], the MIC is below 1 µg/mL. Consider `C[C@@H](CF)NCC(Cc1nc[nH]c(=O)c1O)c1ccc(C#Cc2ccc(C(O)CO)cc2)cc1` (single isomer, unassigned) [Compound 252], for which the MIC was below 1 µg/mL. Still for that read-out and setting: for `CS(=O)(=O)N1CC[C@@H](NCc2ccc(C#Cc3ccc(C(CO)Cc4nc[nH]c(=O)c4O)cc3)cc2)C1` (single isomer, unassigned) [Compound 254] the value was below 1 µg/mL; for `O=c1[nH]cnc(C[C@H](CO)c2ccc(C#Cc3ccc(C4(O)CCNCC4)cc3)cc2)c1O` (single isomer, unassigned) [Compound 266], 1 to 8 µg/mL (≈ 2.24 to 18 µM). Consider `O=c1[nH]cnc(C[C@H](CO)c2ccc(C#Cc3ccc(CN(CCO)[C@@H]4CCOC4)cc3)cc2)c1O` (single isomer, unassigned) [Compound 269], for which the minimum inhibitory concentration (MIC) lay within 1 to 8 µg/mL (≈ 2.04 to 16.3 µM).

Turning to `O=c1[nH]cnc(C[C@H](CO)c2ccc(C#Cc3ccc(C(O)CO)cc3)cc2)c1O` (single isomer, unassigned) [Compound 270], the MIC was 1 to 8 µg/mL (≈ 2.46 to 19.7 µM). Still for that read-out and setting: for `O=c1[nH]cnc(C[C@H](CO)c2ccc(C#Cc3ccc(CN4CC5(CCO5)C4)cc3)cc2F)c1O` (single isomer, unassigned) [Compound 273] the value was below 1 µg/mL; for `O=c1[nH]cnc(C[C@H](CN2CC(O)C2)c2ccc(C#Cc3ccc(CN4CCOCC4)cc3F)cc2)c1O` (single isomer, unassigned) [Compound 275], below 1 µg/mL. `O=c1[nH]cnc(C[C@H](CN2CC(O)C2)c2ccc(C#Cc3ccc(CN4CCOCC4)c(F)c3)cc2)c1O` (single isomer, unassigned) [Compound 276]: the MIC was 1 to 8 µg/mL (≈ 1.93 to 15.4 µM). Consider `N#CC1CN(Cc2ccc(C#Cc3ccc([C@@H](CNCC(F)F)Cc4nc[nH]c(=O)c4O)c(F)c3)cc2)C1` (single isomer, unassigned) [Compound 279], for which the MIC was below 1 µg/mL. Same read-out and setting: the same measure for `C[C@H](CF)NCC(Cc1nc[nH]c(=O)c1O)c1ccc(C#Cc2ccc(CN3CCOCC3)cc2)cc1F` (single isomer, unassigned) [Compound 280]: below 1 µg/mL; for `N#C[C@@H]1CCN(Cc2ccc(C#Cc3ccc([C@@H](CNCC(F)F)Cc4nc[nH]c(=O)c4O)c(F)c3)cc2)C1` (single isomer, unassigned) [Compound 281]: below 1 µg/mL; for `COC1CN(Cc2ccc(C#Cc3ccc([C@@H](CNCC(F)F)Cc4nc[nH]c(=O)c4O)c(F)c3)cc2)C1` (single isomer, unassigned) [Compound 282]: below 1 µg/mL. Turning to `O=c1[nH]cnc(C[C@H](CNCC(F)F)c2ccc(C#Cc3ccc(CN4CCOCC4)cc3)cc2F)c1O` (single isomer, unassigned) [Compound 283], the MIC is below 1 µg/mL. On the same count and under the same terms, the same measure for `COC[C@@H](Cc1nc[nH]c(=O)c1O)c1ccc(C#Cc2ccc(CN[C@H]3CCOC3)cc2)cc1` (single isomer, unassigned) [Compound 285]: below 1 µg/mL. The same measure, in the same setting: for `COC[C@@H](Cc1nc[nH]c(=O)c1O)c1ccc(C#Cc2ccc(CN[C@H]3CCNC3)cc2)cc1` (single isomer, unassigned) [Compound 287] the value was 1 to 8 µg/mL (≈ 2.18 to 17.4 µM). The same measure, in the same setting: the same measure for `COC[C@@H](Cc1nc[nH]c(=O)c1O)c1ccc(C#Cc2ccc(CN[C@@H]3CCNC3)cc2)cc1` (single isomer, unassigned) [Compound 288]: 1 to 8 µg/mL (≈ 2.18 to 17.4 µM); for `CS(=O)(=O)N[C@@H](Cc1nc[nH]c(=O)c1O)c1ccc(C#Cc2ccc(C3(O)CCNCC3)cc2)cc1` (single isomer, unassigned) [Compound 296]: 8 to 32 µg/mL (≈ 15.7 to 62.9 µM); for `CS(=O)(=O)N[C@@H](Cc1nc[nH]c(=O)c1O)c1ccc(C#Cc2ccc(CN3CCNC[C@H]3CO)cc2)cc1` (single isomer, unassigned) [Compound 297]: 8 to 32 µg/mL (≈ 14.9 to 59.5 µM).

For the compound `COC1CN(Cc2ccc(C#Cc3ccc([C@@H](Cc4nc[nH]c(=O)c4O)NS(C)(=O)=O)cc3)cc2)C1` (single isomer, unassigned) [Compound 299], the MIC is below 1 µg/mL. `CN(C[C@@H](Cc1nc[nH]c(=O)c1O)c1ccc(C#Cc2ccc(CN3CCOCC3)cc2)cc1)C1CC1` (single isomer, unassigned) [Compound 302]: the MIC is below 1 µg/mL.

Regarding `CC(=O)NC[C@@H](Cc1nc[nH]c(=O)c1O)c1ccc(C#Cc2ccc(CN3CCOCC3)cc2)cc1` (single isomer, unassigned) [Compound 303], the MIC is below 1 µg/mL.

With `CS(=O)(=O)NC[C@@H](Cc1nc[nH]c(=O)c1O)c1ccc(C#Cc2ccc(CN3CCOCC3)cc2)cc1` (single isomer, unassigned) [Compound 304], the MIC is below 1 µg/mL. In the case of `CC(C)(O)C(Cc1nc[nH]c(=O)c1O)c1ccc(C#Cc2ccc(CN3CCOCC3)cc2)cc1` (centres unmarked) [Compound 1], the MIC lay within 1 to 8 µg/mL (≈ 2.11 to 16.9 µM). Same read-out and setting: for `O=c1[nH]cnc(CC(CO)c2ccc(C#Cc3ccc(CN4CCOCC4)cc3)cc2)c1O` (centres unmarked) [Compound 2] the value was below 1 µg/mL; for `O=c1[nH]cnc(CC(CNCCF)c2ccc(C#Cc3ccc(CN4CCOCC4)cc3)cc2)c1O` (centres unmarked) [Compound 6], 1 to 8 µg/mL (≈ 2.04 to 16.3 µM); for `CC(O)C(Cc1nc[nH]c(=O)c1O)c1ccc(C#Cc2ccc(CN3CCOCC3)cc2)cc1` (centres unmarked) [Compound 12], 1 to 8 µg/mL (≈ 2.18 to 17.4 µM). On the same count and under the same terms, the same measure for `NCC(Cc1nc[nH]c(=O)c1O)c1ccc(C#Cc2ccc(CN3CCOCC3)cc2)cc1` (centres unmarked) [Compound 18]: 1 to 8 µg/mL (≈ 2.25 to 18 µM). Take `O=C(NCCF)C(Cc1nc[nH]c(=O)c1O)c1ccc(C#Cc2ccc(CN3CCOCC3)cc2)cc1` (centres unmarked) [Compound 19]: the MIC was below 1 µg/mL.

Turning to `O=C(NCCF)C(Cc1nc[nH]c(=O)c1O)c1ccc(C#Cc2ccc(CN3CCOCC3)cc2)cc1` (centres unmarked) [Compound 20], the “E. coli MIC” value is listed as “A (A: ≤1 μg/mL)”. Consider `O=C(NCCF)C(Cc1nc[nH]c(=O)c1O)c1ccc(C#Cc2ccc(CN3CCOCC3)cc2)cc1` (centres unmarked) [Compound 21], for which the “E. coli MIC” value is listed as “B (B: >1 μg/mL to ≤8.0 μg/mL)”. In the case of `O=C(NCC(F)F)C(Cc1nc[nH]c(=O)c1O)c1ccc(C#Cc2ccc(CN3CCOCC3)cc2)cc1` (centres unmarked) [Compound 22], the MIC was below 1 µg/mL. Regarding `CNC(=O)C(Cc1nc[nH]c(=O)c1O)c1ccc(C#Cc2ccc(CN3CCOCC3)cc2)cc1` (centres unmarked) [Compound 23], the MIC is below 1 µg/mL. With `COC(=O)C(Cc1nc[nH]c(=O)c1O)c1ccc(C#Cc2ccc(CN3CCOCC3)cc2)cc1` (centres unmarked) [Compound 24], the MIC was below 1 µg/mL. As for `O=C(NC1CC(F)(F)C1)C(Cc1nc[nH]c(=O)c1O)c1ccc(C#Cc2ccc(CN3CCOCC3)cc2)cc1` (centres unmarked) [Compound 25], the MIC lay within 1 to 8 µg/mL (≈ 1.82 to 14.6 µM).

In the case of `CCOC(=O)C(Cc1nc[nH]c(=O)c1O)c1ccc(C#Cc2ccc(CNC3CCOC3)cc2)cc1` (centres unmarked) [Compound 26], the minimum inhibitory concentration (MIC) was 1 to 8 µg/mL (≈ 2.05 to 16.4 µM). In the case of `COC(=O)C(Cc1nc[nH]c(=O)c1O)c1ccc(C#Cc2ccc(CNC3CCOC3)cc2)cc1` (centres unmarked) [Compound 27], the MIC lay within 1 to 8 µg/mL (≈ 2.11 to 16.9 µM). Consider `CC(C#N)NC(=O)C(Cc1nc[nH]c(=O)c1O)c1ccc(C#Cc2ccc(CN3CCOCC3)cc2)cc1` (centres unmarked) [Compound 28], for which the MIC was 1 to 8 µg/mL (≈ 1.95 to 15.6 µM). Take `O=C(NCC(F)F)C(Cc1nc[nH]c(=O)c1O)c1ccc(C#Cc2ccc(Cn3ccnc3CO)cc2)cc1` (centres unmarked) [Compound 29]: the minimal inhibitory concentration (MIC) was below 1 µg/mL. Turning to `CC(CO)(Cc1nc[nH]c(=O)c1O)c1ccc(C#Cc2ccc(CN3CCOCC3)cc2)cc1` (centres unmarked) [Compound 31], the MIC was below 1 µg/mL. The same measure, in the same setting: for `N#CC1CCN(Cc2ccc(C#Cc3ccc([C@@H](CO)Cc4nc[nH]c(=O)c4O)cc3)cc2)C1` (some centres unmarked) [Compound 33] the value was below 1 µg/mL. The same measure, in the same setting: for `N#C[C@H]1CCN(Cc2ccc(C#Cc3ccc(C(CO)Cc4nc[nH]c(=O)c4O)cc3)cc2)C1` (some centres unmarked) [Compound 34] the value was below 1 µg/mL; for `N#C[C@@H]1CCN(Cc2ccc(C#Cc3ccc(C(CO)Cc4nc[nH]c(=O)c4O)cc3)cc2)C1` (some centres unmarked) [Compound 36], below 1 µg/mL.

`O=c1[nH]cnc(CC(CO)c2ccc(C#Cc3ccc(CNC4C5COCC54)cc3)cc2)c1O` (centres unmarked) [Compound 37]: the MIC is below 1 µg/mL. Still for that read-out and setting: for `O=c1[nH]cnc(CC(CO)c2ccc(C#Cc3ccc(CNC4CCS(=O)(=O)C4)cc3)cc2)c1O` (centres unmarked) [Compound 38] the value was below 1 µg/mL; for `O=c1[nH]cnc(CC(CO)c2ccc(C#Cc3ccc(CN4CC5(CCCO5)C4)cc3)cc2)c1O` (centres unmarked) [Compound 42], below 1 µg/mL. Take `O=c1[nH]cnc(CC(CO)c2ccc(C#Cc3ccc(CN4CC5(COC5)C4)cc3)cc2)c1O` (centres unmarked) [Compound 47]: the MIC fell in the range of 1 to 8 µg/mL (≈ 2.19 to 17.5 µM).

The values are drawn from patent publication US11407740B2 (priority 2018, dated 2022).
